From US20090215758A1, “Use of 2,5-Disubstituted Thiazol-4-One Derivatives in Drugs” (Gruenenthal GmbH, priority 2005, published 2009)
Structures can show the parent of a compound that is named as a salt.

Tests used:
[1] = biological target: T1, VR1 (human) (Homo sapiens, UniProt Q8NER1); test: Functional study on vanilloid receptor (VR1), FLIPR Ca2+ assay in CHO K1 cells stably transfected with the VR1 gene; assay type: cell-based; conditions: for inhibition at 10 µM / activation at 10 µM: CHO-K1, test compound 10 μM; for inhibition at 10 µM / VR1 (human) (% inhibition compared to 10 μM CP): 5 min incubation, then 100 nM capsaicin, compared to 10 μM CP; for activation at 10 µM / VR1 (human) (% stimulation compared to 10 μM CP): Ca2+ signal relative to 10 μM capsaicin (CP); for activation at 10 µM: read-out: VR1 (human) (% stimulation compared to 10 μM CP); for VR1 (human) (% inhibition compared to 10 μM CP) / VR1 (human) (% stimulation compared to 10 μM CP): test compound 10 μM; for EC50: unit inferred
T1 construct: expressed in transfected cells; host or cells: CHO K1 cells (ECACC), stably transfected
Excerpt: The agonistic or antagonistic action of the substances to be tested on vanilloid receptor (VR1) can also be determined with the assay which follows. In this assay, the Ca^2+ current through the channel is quantified with the aid of a Ca^2+-sensitive dye (Fluo-4 type, Molecular Probes, Europe BV, Leiden, the Netherlands) in a fluorescent imaging plate reader (FLIPR, Molecular Devices, Sunnyvale, USA).
Chinese hamster ovary cells (CHO K1 cells, European Collection of Cell Cultures (ECACC) Great Britain) are transfected stably with the VR1 gene. For functional studies, these cells are plated out onto poly-D-lysine-coated black 96-well plates with a clear bottom (BD Biosciences, Heidelberg, Germany) in a density of 25 000 cells/well. The cells are incubated overnight at 37° C. and 5% CO2 in a culture medium (Ham's Nutrient Mixture F12, 10% by volume of FCS (fetal calf serum), 18 μg/ml of L-proline). The next day, the cells are incubated with Fluo-4 (Fluo-4 2 μM, Pluronic F127 0.01% by volume, Molecular Probes in HBSS (Hank's buffered saline solution), Gibco Invitrogen GmbH, Karlsruhe, Germany) at 37° C. for 30 minutes. Subsequently, the plates are washed 3 times with HBSS buffer and, after a further incubation of 15 minutes at room temperature, used for Ca^2+ measurement in FLIPR. The Ca^2+-dependent fluorescence is measured before and after addition of the substances to be studied (wavelength λex=488 nm, λem=540 nm). The quantification is effected by measuring the highest fluorescence intensity (FC, fluorescence counts) over the time.
The FLIPR protocol consists of 2 substance additions. First, the substances to be tested (10 μM) are pipetted onto the cells and the Ca current is compared with the control (capsaicin 10 μM) (% activation based on the Ca^2+ signal after addition of 10 μM capsaicin). After incubation for 5 minutes, 100 nM capsaicin is applied and the current of Ca^2+ is likewise determined.

[2] = biological target: T2, vanilloid receptor 1 (VR1/TRPV1) of the rat species (Rattus norvegicus, UniProt O35433); test: Functional study on vanilloid receptor 1, FLIPR Ca2+ assay in rat dorsal root ganglia cells; assay type: cell-based; conditions: for inhibition at 10 µM / activation at 10 µM / VR1 (rat) (% inhibition compared to 10 μM CP) / VR1 (rat) (% stimulation compared to 10 μM CP): test compound 10 μM; for inhibition at 10 µM / VR1 (rat) (% inhibition compared to 10 μM CP): 5 min incubation, then 100 nM capsaicin, relative to maximum inhibition with 10 μM capsaicin; for inhibition at 10 µM: read-out: VR1 (rat) (% inhibition compared to 10 μM CP); for activation at 10 µM / VR1 (rat) (% stimulation compared to 10 μM CP): Ca2+ signal relative to 10 μM capsaicin (CP); for activation at 10 µM: read-out: VR1 (rat) (% stimulation compared to 10 μM CP); for EC50: unit inferred
T2 construct: The spinal column is removed from beheaded rats; from tissue; host or cells: primary cells from rat dorsal root ganglia (DRGs)
Experimental: The agonistic or antagonistic action of the substances to be studied on the vanilloid receptor 1 (VR1/TRPV1) of the rat species can be determined with the following assay. In this assay, the Ca^2+ current through the receptor channel is quantified with the aid of a Ca^2+-sensitive dye (Fluo-4 type, Molecular Probes Europe BV, Leiden the Netherlands) in a fluorescent imaging plate reader (FLIPR, Molecular Devices, Sunnyvale, USA).
Complete medium: 50 ml HAMS F12 Nutrient Mixture (Gibco Invitrogen GmbH, Karlsruhe, Germany) with 10% by volume of FCS (fetal calf serum, Gibco Invitrogen GmbH, Karlsruhe, Germany, heat-inactivated);
2 mM L-glutamine (Sigma, Munich, Germany);
1% by weight of AA solution (antibiotic/antimycotic solution, PAA, Pasching, Austria) and 25 ng/ml of NGF medium (2.5 S, Gibco Invitrogen GmbH, Karlsruhe, Germany)
Cell culture plate: poly-D-lysine-coated, black 96-hole plates with a clear bottom (96 well black/clear plate, BD Biosciences, Heidelberg, Germany) are additionally coated with laminin (Gibco Invitrogen GmbH, Karlsruhe, Germany) by diluting laminin to a concentration of 100 μg/ml with PBS (Ca—Mg-free PBS, Gibco Invitrogen GmbH, Karlsruhe, Germany). Aliquots having a concentration of 100 μg/ml of laminin are withdrawn and stored at −20° C. The aliquots are diluted with PBS in a ratio of 1:10 to 10 μg/ml of laminin and in each case 50 μl of the solution are pipetted into a well of the cell culture plate. The cell culture plates are incubated at 37° C. for at least two hours, the supernatant solution is removed by suction and the wells are each washed twice with PBS. The coated cell culture plates are stored with supernatant PBS which is not removed until directly before the application of the cells.
The spinal column is removed from beheaded rats and placed directly into cold HBSS buffer (Hank's buffered saline solution, Gibco Invitrogen GmbH, Karlsruhe, Germany), i.e. placed in an ice bath, which has been admixed with 1% by volume of an AA solution (antibiotic/antimycotic solution, PAA, Pasching, Austria). The spinal column is severed longitudinally and removed from the spinal canal together with fasciae. Subsequently, the dorsal root ganglia (DRGs) are removed and in turn stored in cold HBSS buffer admixed with 1% by volume of an AA solution. The DRGs freed completely of blood residues and spinal nerves are in each case transferred to 500 μl of cold type 2 collagenase (PAA, Pasching, Austria) and incubated at 37° C. for 35 minutes. […] After complete incubation, the enzyme solution is cautiously pipetted off and the remaining DRGs are each suspended with 500 μl of complete medium.
The DRGs are each suspended repeatedly, drawn through cannulas No. 1, No. 12 and No. 16 by means of a syringe and transferred to 50 ml Falcon tubes which are made up to 15 ml with complete medium. The contents of each Falcon tube are in each case filtered through a 70 μm Falcon filter insert and centrifuged at 1200 revolutions and room temperature for 10 minutes. The resulting pellet is in each case taken up in 250 μl of complete medium and the cell count is determined.
The number of cells in the suspension is adjusted to 3 times 10^5 per ml and in each case 150 μl of this suspension are added to one well of the cell culture plates coated as described above.
Subsequently, the cells are laden with 2 μM Fluo-4 and 0.01% by volume of Pluronic F127 (Molecular Probes Europe BV, Leiden, the Netherlands) in HBSS buffer (Hank's buffered saline solution, Gibco Invitrogen GmbH, Karlsruhe, Germany) at 37° C. for 30 min, washed 3× with HBSS buffer and, after a further incubation of 15 minutes, used in the FLIPR assay at room temperature for Ca^2+ measurement. The Ca^2+-dependent fluorescence is measured before and after addition of substances (λex=488 nm, λem=540 nm). The quantification is effected by the measurement of the highest fluorescence intensity (FC, fluorescence counts) over the time.

T1 sequence (Q8NER1 whole entry): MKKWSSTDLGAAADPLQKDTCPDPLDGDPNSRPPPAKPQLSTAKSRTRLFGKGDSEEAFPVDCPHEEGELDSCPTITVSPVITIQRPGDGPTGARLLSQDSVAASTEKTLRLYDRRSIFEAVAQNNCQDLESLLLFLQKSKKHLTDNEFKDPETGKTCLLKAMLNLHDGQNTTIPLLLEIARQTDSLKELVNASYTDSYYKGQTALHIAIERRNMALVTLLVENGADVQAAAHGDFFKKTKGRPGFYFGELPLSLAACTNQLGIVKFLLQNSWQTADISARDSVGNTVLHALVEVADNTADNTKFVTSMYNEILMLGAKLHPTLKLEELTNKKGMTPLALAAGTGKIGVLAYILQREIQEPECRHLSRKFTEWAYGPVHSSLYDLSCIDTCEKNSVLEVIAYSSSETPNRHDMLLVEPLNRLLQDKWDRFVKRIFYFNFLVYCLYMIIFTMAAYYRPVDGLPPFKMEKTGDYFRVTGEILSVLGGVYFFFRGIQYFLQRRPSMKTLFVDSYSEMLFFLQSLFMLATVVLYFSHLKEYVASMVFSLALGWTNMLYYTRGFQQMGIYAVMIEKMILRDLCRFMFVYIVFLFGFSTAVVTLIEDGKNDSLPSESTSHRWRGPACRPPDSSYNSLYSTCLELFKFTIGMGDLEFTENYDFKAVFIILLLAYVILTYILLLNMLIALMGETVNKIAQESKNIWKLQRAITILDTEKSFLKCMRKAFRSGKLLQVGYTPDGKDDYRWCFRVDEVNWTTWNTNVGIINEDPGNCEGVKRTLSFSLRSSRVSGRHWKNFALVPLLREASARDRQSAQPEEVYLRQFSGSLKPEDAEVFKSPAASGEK
T2 sequence (O35433 whole entry): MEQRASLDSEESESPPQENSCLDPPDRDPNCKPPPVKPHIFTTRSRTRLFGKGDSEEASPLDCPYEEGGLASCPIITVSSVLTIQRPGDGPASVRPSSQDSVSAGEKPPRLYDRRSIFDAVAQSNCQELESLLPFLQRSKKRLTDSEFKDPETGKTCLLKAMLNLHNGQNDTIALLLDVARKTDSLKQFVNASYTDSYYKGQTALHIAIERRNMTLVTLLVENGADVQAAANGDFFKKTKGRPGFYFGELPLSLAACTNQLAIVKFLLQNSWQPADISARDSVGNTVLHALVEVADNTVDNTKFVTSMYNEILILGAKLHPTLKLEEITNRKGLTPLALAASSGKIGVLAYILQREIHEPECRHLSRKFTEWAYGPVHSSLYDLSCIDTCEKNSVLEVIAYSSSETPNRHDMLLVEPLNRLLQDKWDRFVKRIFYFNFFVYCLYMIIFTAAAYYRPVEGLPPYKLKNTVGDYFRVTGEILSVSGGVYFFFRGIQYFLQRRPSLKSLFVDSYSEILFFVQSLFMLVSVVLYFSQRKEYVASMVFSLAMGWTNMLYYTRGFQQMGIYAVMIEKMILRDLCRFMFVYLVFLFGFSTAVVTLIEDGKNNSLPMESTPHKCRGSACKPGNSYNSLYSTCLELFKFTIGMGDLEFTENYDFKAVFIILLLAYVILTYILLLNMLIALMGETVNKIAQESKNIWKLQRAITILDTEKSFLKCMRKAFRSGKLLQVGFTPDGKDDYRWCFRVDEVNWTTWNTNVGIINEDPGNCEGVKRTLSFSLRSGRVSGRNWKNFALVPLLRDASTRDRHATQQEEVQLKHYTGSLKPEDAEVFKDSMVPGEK

Row | Compound | inhibition at 10 µM [1] [%] | activation at 10 µM [1] [%] | inhibition at 10 µM [2] [%] | activation at 10 µM [2] [%] | VR1 (human) (% inhibition compared to 10 μM CP) [1] [%] | VR1 (human) (% stimulation compared to 10 μM CP) [1] [%] | VR1 (rat) (% inhibition compared to 10 μM CP) [2] [%] | VR1 (rat) (% stimulation compared to 10 μM CP) [2] [%] | EC50 [1] [µM] | EC50 [2] [µM]
1 | Cc1ccc(N2CCN(C3=NC(=O)C(=CC=Cc4ccccc4)S3)CC2)nn1 [Example 161, 2-[4-(6-methylpyridazin-3-yl)piperazin-1-yl]-5-(3-phenylallylidene)thiazol-4-one] | 47.2 | 2.43 | 17 | 2.5 | – | – | – | – | – | –
2 | Br.Cc1ccc(C=C2SC(N3CCOCC3)=NC2=O)cc1 [Example 176, 5-(4-methylbenzylidene)-2-morpholin-4-ylthiazol-4-one hydrobromide] | – | 14.5 | 97.5 | 44.7 | 35.32 | – | – | – | – | –
3 | Br.CC(C)c1ccc(C=C2SC(N3CCOCC3)=NC2=O)cc1 [Example 179, 5-(4-isopropylbenzylidene)-2-morpholin-4-ylthiazol-4-one hydrobromide] | – | – | – | – | 30.72 | 5.04 | 38.36 | 41.89 | – | –
4 | O=C1N=C(N2CCOCC2)SC1=CC=Cc1ccccc1 [Example 189, 2-morpholin-4-yl-5-(3-phenylallylidene)thiazol-4-one hydrobromide] | 8.14 | 11.2 | 5.61 | 6.64 | – | – | – | – | > 50 | > 25
5 | Br.O=C1N=C(N2CCSCC2)SC1=CC=Cc1ccccc1 [Example 190, 5-(3-phenylallylidene)-2-thiomorpholin-4-ylthiazol-4-one hydrobromide] | – | – | – | – | 32.35 | 34.09 | 83.13 | 51.35 | > 25 | 14.3
6 | O=C1N=C(N2CCCCC2)SC1=CC=Cc1ccccc1 [Example 191, 5-(3-phenylallylidene)-2-piperidin-1-ylthiazol-4-one hydrobromide] | 8.04 | 15.8 | 17.6 | -0.17 | – | – | – | – | > 50 | > 25
7 | O=C1N=C(N2CCCCCC2)SC1=CC=Cc1ccccc1 [Example 192, 2-azepan-1-yl-5-(3-phenylallylidene)thiazol-4-one hydrobromide] | 10.3 | 16.7 | 2.18 | 1.34 | – | – | – | – | > 50 | > 50
8 | O=C1N=C(N2CCSCC2)SC1=Cc1cccc(C(F)(F)F)c1 [Example 195, 2-thiomorpholin-4-yl-5-(3-trifluoromethylbenzylidene)thiazol-4-one hydrobromide] | 90.3 | 80.3 | 96.1 | 94.3 | – | – | – | – | 5.9 | 2.2
9 | CC(C)(C)c1ccc(C=C2SC(N3CCCC3)=NC2=O)cc1 [Example 199, 5-(4-tert-butylbenzylidene)-2-pyrrolidin-1-ylthiazol-4-one hydrobromide] | 4.43 | 9.64 | 69.5 | 42.9 | – | – | – | – | – | –

Next, values leading:

Row | inhibition at 10 µM [1] [%] | activation at 10 µM [1] [%] | inhibition at 10 µM [2] [%] | activation at 10 µM [2] [%] | VR1 (human) (% inhibition compared to 10 μM CP) [1] [%] | VR1 (human) (% stimulation compared to 10 μM CP) [1] [%] | VR1 (rat) (% inhibition compared to 10 μM CP) [2] [%] | VR1 (rat) (% stimulation compared to 10 μM CP) [2] [%] | EC50 [1] [µM] | EC50 [2] [µM] | Compound
10 | 72.4 | 48 | 94.3 | – | – | – | – | 63.86 | – | – | CC(C)(C)c1ccc(C=C2SC(N3CCOCC3)=NC2=O)cc1 [Example 197, 5-(4-tert-butylbenzylidene)-2-morpholin-4-ylthiazol-4-one]
11 | 76.7 | 54.3 | 97.6 | 60.7 | – | – | – | – | 1.02 | 1.12 | CC(C)(C)c1ccc(C=C2SC(N3CCSCC3)=NC2=O)cc1 [Example 198, 5-(4-tert-butylbenzylidene)-2-thiomorpholin-4-ylthiazol-4-one hydrobromide]
12 | 2.12 | 17.5 | 46.2 | 31.4 | – | – | – | – | > 25 | > 25 | CC(C)(C)c1ccc(C=C2SC(N3CCCCCC3)=NC2=O)cc1 [Example 200, 2-azepan-1-yl-5-(4-tert-butylbenzylidene)thiazol-4-one hydrobromide]
13 | 103 | 68.2 | 96.4 | 79.6 | – | – | – | – | – | – | O=C1N=C(N2CCOCC2)SC1=Cc1cccc(C(F)(F)F)c1 [Example 205, 2-morpholin-4-yl-5-(3-trifluoromethylbenzylidene)thiazol-4-one hydrobromide]
14 | – | – | – | – | 95.06 | 77.26 | 102.30 | 76.51 | – | – | O=C1N=C(N2CCOCC2)SC1=Cc1cccc(C(F)(F)F)c1 [Example 206, 2-morpholin-4-yl-5-(3-trifluoromethylbenzylidene)thiazol-4-one]
15 | 5.47 | 9.44 | 34.7 | 40 | – | – | – | – | 28.4 | 14.8 | O=C1N=C(N2CCOCC2)SC1=Cc1cccc2ccccc12 [Example 209, 2-morpholin-4-yl-5-naphthalen-1-ylmethylenethiazol-4-one]
